Test results taken from ChEMBL document CHEMBL6127139, “Lysine-Targeted Covalent Inhibitors of PI3Kδ Synthesis and Screening by In Situ Interaction Upgradation” (J Med Chem, 2024).
The source made the active and inactive calls. No cut-off for these calls is given here.

Legend:
SU-DHL-6 [1] = assay: Induction of apoptosis in human SU-DHL-6 cells assessed as late apoptotic cells at 1 uM incubated for 48 hrs by Annexin V-FITC/PI staining based flow cytometric analysis (reference value: 4.12 %); type: functional
[2] = target: Phosphatidylinositol 4,5-bisphosphate 3-kinase catalytic subunit gamma isoform (Homo sapiens, UniProt P48736); assay: Inhibition of recombinant PI3Kgamma (unknown origin) using PIP2:3PS as substrate preincubated for 20 mins followed by ATP addition and measured after 1 hrs by ADP-Glo reagent based assay
Chain of Phosphatidylinositol 4,5-bisphosphate 3-kinase catalytic subunit gamma isoform (P48736 whole entry, canonical isoform): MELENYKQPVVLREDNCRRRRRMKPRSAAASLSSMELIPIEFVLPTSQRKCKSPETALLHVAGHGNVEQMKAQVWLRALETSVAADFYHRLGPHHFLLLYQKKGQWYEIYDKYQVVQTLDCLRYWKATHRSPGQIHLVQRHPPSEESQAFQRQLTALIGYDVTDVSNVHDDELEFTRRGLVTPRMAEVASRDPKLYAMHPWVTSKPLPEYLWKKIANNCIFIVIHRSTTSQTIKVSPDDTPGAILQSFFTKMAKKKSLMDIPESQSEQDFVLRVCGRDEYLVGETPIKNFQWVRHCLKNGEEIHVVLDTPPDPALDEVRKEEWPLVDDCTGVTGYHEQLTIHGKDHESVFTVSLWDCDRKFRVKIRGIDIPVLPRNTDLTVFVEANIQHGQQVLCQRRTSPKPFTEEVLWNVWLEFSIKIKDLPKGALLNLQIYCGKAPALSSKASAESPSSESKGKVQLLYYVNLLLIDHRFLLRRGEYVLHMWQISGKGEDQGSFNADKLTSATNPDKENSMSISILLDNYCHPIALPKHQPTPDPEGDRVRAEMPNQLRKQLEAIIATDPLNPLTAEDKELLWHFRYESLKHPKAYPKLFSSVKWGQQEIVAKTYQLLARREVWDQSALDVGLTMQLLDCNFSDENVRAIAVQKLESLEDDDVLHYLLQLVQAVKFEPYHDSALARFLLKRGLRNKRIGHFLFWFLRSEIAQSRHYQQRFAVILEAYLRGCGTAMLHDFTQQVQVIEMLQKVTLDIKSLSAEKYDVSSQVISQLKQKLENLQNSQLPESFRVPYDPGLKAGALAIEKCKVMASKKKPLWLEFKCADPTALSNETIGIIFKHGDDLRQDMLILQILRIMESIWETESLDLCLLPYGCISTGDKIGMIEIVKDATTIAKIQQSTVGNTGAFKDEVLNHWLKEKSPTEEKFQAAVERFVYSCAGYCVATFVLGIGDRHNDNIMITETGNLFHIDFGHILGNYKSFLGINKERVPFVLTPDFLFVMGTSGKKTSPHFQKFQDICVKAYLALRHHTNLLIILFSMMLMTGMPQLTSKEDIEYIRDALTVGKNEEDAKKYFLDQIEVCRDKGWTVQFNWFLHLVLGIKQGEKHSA

SU-DHL-6 [3] = assay: Induction of apoptosis in human SU-DHL-6 cells assessed as early apoptotic cells at 0.01 uM incubated for 48 hrs by Annexin V-FITC/PI staining based flow cytometric analysis (reference value: 5.02 %); type: functional
SU-DHL-6 [4] = assay: Antiproliferative activity against human SU-DHL-6 cells assessed as inhibition of cell viability preincubated for 12 hrs followed by compound washout and measured after 60 hrs by MTT assay; type: functional, cell-based
SU-DHL-6 [5] = assay: Induction of apoptosis in human SU-DHL-6 cells assessed as viable cells at 0.01 uM incubated for 48 hrs by Annexin V-FITC/PI staining based flow cytometric analysis (reference value: 89.81 %); type: functional; conditions: read-out: Activity
[6] = Selectivity ratio of GI50 for human HCT-116 cells to GI50 for PI3Kdelta overexpressing human SU-DHL-6; type: functional
[7] = target: T1, Phosphatidylinositol 4,5-bisphosphate 3-kinase catalytic subunit delta isoform (Homo sapiens, UniProt O00329); assay: Inhibition of recombinant PI3Kdelta (unknown origin) using PIP2:3PS as substrate preincubated for 20 mins followed by ATP addition and measured after 1 hrs by ADP-Glo reagent based assay
T1 sequence (O00329 whole entry): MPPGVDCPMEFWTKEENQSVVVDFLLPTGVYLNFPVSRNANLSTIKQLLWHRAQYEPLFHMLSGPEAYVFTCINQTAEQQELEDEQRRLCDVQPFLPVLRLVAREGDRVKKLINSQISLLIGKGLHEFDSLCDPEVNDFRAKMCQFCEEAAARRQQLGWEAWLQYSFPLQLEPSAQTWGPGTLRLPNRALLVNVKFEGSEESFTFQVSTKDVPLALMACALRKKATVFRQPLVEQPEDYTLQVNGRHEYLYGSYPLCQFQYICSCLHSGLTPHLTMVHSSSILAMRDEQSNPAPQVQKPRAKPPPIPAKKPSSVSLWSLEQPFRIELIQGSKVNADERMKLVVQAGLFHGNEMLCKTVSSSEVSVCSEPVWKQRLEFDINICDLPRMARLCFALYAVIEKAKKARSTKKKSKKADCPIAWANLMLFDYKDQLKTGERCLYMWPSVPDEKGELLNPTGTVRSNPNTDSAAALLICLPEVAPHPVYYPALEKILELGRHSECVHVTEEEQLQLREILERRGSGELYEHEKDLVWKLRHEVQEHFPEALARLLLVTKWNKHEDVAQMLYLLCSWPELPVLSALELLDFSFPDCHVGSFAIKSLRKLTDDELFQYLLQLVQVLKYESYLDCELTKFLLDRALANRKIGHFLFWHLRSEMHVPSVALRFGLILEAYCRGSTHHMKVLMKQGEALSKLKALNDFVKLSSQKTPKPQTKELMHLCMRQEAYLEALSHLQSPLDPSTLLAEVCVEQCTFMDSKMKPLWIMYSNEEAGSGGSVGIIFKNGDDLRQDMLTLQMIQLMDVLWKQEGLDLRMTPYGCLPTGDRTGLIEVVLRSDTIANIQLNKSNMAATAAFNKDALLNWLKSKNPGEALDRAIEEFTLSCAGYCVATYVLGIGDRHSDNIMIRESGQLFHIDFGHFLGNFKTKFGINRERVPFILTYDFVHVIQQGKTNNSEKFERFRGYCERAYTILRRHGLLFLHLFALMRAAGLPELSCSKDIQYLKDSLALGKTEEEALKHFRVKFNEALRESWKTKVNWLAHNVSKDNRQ

[8] = Selectivity index, ratio of IC50 for inhibition of recombinant PI3Kbeta (unknown origin) using PIP2:3PS as substrate to IC50 for inhibition of recombinant PI3Kdelta (unknown origin) using PIP2:3PS as substrate
SU-DHL-6 [9] = assay: Induction of apoptosis in human SU-DHL-6 cells assessed as late apoptotic cells at 0.01 uM incubated for 48 hrs by Annexin V-FITC/PI staining based flow cytometric analysis (reference value: 4.12 %); type: functional
[10] = target: T2, Phosphatidylinositol 4,5-bisphosphate 3-kinase catalytic subunit delta isoform (Homo sapiens) (UniProt O00329); assay: Induction of thermal stabilization of PI3Kdelta in human SU-DHL-6 cells at 1 uM preincubated for 30 mins followed by incubated under 40 to 75 degreeC for 3 mins by CETSA; type: cell-based; conditions: time 33.0 min
T2 sequence (whole entry): T1 sequence (O00329 whole entry)

[11] = target: Phosphatidylinositol 4,5-bisphosphate 3-kinase catalytic subunit alpha isoform (Homo sapiens, UniProt P42336); assay: Inhibition of recombinant PI3Kalpha (unknown origin) using PIP2:3PS as substrate preincubated for 20 mins followed by ATP addition and measured after 1 hrs by ADP-Glo reagent based assay
Chain of Phosphatidylinositol 4,5-bisphosphate 3-kinase catalytic subunit alpha isoform (P42336 whole entry, canonical isoform): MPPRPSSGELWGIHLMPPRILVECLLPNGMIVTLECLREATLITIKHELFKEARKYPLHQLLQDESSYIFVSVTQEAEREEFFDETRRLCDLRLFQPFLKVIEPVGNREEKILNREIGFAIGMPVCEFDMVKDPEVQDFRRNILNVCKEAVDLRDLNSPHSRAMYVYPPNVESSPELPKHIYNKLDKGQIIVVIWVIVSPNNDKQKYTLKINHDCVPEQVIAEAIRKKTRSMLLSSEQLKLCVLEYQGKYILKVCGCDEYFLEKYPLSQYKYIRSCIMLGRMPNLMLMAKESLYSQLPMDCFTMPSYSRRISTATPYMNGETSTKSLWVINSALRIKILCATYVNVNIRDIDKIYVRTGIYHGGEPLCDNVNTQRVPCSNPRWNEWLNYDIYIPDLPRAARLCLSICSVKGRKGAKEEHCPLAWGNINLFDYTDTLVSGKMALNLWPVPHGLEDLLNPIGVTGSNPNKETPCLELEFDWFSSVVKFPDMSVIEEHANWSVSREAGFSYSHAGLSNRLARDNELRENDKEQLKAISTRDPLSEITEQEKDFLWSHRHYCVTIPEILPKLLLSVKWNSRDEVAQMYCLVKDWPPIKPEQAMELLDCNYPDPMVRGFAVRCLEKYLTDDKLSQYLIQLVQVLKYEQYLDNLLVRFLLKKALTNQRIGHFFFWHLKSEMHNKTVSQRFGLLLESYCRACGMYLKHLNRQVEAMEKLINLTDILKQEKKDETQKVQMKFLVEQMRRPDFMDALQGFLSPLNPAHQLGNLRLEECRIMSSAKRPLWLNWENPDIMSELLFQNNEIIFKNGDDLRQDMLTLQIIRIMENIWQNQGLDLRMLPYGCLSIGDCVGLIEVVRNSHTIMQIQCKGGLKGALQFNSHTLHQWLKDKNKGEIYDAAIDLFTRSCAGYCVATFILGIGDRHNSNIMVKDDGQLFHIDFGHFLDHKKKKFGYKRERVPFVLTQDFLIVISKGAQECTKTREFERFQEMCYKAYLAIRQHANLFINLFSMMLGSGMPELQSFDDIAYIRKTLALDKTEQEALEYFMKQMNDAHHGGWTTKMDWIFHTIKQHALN

SU-DHL-6 [12] = assay: Induction of apoptosis in human SU-DHL-6 cells assessed as viable cells at 0.1 uM incubated for 48 hrs by Annexin V-FITC/PI staining based flow cytometric analysis (reference value: 89.81 %); type: functional; conditions: read-out: Activity
Pfeiffer = assay: Antitumor activity against human Pfeiffer cells xenografted in male nude mouse assessed as tumor growth inhibition at 30 mg/kg/day, po administered for 14 days relative to control; type: functional; conditions: 336 h, time 14 day, read-out: TGI
[13] = Stability of compound in water/acetonitrile solution incubated for 24 hrs by HPLC analysis; type: physicochemical; conditions: buffer
SU-DHL-6 [14] = assay: Induction of apoptosis in human SU-DHL-6 cells assessed as late apoptotic cells at 0.1 uM incubated for 48 hrs by Annexin V-FITC/PI staining based flow cytometric analysis (reference value: 4.12 %); type: functional
SU-DHL-6 [15] = assay: Induction of apoptosis in human SU-DHL-6 cells assessed as viable cells at 1 uM incubated for 48 hrs by Annexin V-FITC/PI staining based flow cytometric analysis (reference value: 89.81 %); type: functional; conditions: read-out: Activity
[16] = Selectivity index, ratio of IC50 for inhibition of recombinant PI3Kgamma (unknown origin) using PIP2:3PS as substrate to IC50 for inhibition of recombinant PI3Kdelta (unknown origin) using PIP2:3PS as substrate
[17] = Growth inhibition of PI3Kdelta-overexpressing human SU-DHL-6 cells incubated for 72 hrs by MTT assay; type: functional
SU-DHL-6 [18] = assay: Induction of apoptosis in human SU-DHL-6 cells assessed as necrotic cells at 1 uM incubated for 48 hrs by Annexin V-FITC/PI staining based flow cytometric analysis (reference value: 1.05 %); type: functional
SU-DHL-6 [19] = assay: Induction of apoptosis in human SU-DHL-6 cells assessed as necrotic cells at 0.1 uM incubated for 48 hrs by Annexin V-FITC/PI staining based flow cytometric analysis (reference value: 1.05 %); type: functional
[20] = target: T2, Phosphatidylinositol 4,5-bisphosphate 3-kinase catalytic subunit delta isoform (Homo sapiens); assay: Potency index, ratio of idelalisib IC50 to test compound IC50 for inhibition of recombinant PI3Kdelta (unknown origin) using PIP2:3PS as substrate preincubated for 20 mins followed by ATP addition and measured after 1 hrs by ADP-Glo reagent based assay; conditions: time 80.0 min

IC50 [2]: 94 nM
IC50 [7]: 0.27 nM
Ratio IC50 [8]: 753
Activity [10]: Active
IC50 [11]: 610 nM
Stability [13]: Stable
Ratio IC50 [16]: 359
Ratio IC50 [20]: 10
Compound: COc1ncc(-c2ccc3ncnc(N[C@H]4CCN(C(=O)C5CCOCC5)C4)c3n2)cc1C(=O)Oc1ccccc1
Activity (SU-DHL-6 [1]): 20.35%
Activity (SU-DHL-6 [3]): 10.3%
Activity (SU-DHL-6 [4]): Active
viability at 0.01 µM (SU-DHL-6 [5]): 85%
RatioGI50 [6]: 2500
Activity (SU-DHL-6 [9]): 4.19%
viability at 0.1 µM (SU-DHL-6 [12]): 65.3%
inhibition in vivo at 30 mg/kg/day (Pfeiffer): 61%
Activity (SU-DHL-6 [14]): 15.06%
viability at 1 µM (SU-DHL-6 [15]): 14.2%
GI50 [17]: 2 nM
Activity (SU-DHL-6 [18]): 1.57%
Activity (SU-DHL-6 [19]): 0.92%
